Consider three molecules from ChEMBL document CHEMBL4229543, “Squaramides as novel class I and IIB histone deacetylase inhibitors for topical treatment of cutaneous t-cell lymphoma” (Bioorg Med Chem Lett, 2018).

In brackets after ≈: the same amount, converted by molar mass.

Data set [1] is described as follows: Solubility in PG/EtOH (96%) at 30 mg/mL after 24 hrs by UV-spectrometric method. Conditions: PG/EtOH (96%). Format: physicochemical.
A further data set deals with T1, Histone deacetylase 8 (Homo sapiens, UniProt Q9BY41).
T1 sequence (Q9BY41 whole entry): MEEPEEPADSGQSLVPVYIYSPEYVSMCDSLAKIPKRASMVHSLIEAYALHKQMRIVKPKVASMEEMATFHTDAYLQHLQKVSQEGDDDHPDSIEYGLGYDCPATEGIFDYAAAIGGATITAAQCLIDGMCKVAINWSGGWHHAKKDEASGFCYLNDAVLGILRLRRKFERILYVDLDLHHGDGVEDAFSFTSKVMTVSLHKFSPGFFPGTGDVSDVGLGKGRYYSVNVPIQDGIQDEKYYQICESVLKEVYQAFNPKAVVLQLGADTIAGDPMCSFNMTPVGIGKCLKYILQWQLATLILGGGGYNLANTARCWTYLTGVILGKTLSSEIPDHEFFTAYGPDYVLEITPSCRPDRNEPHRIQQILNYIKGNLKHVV
Put plainly: Inhibition of human recombinant HDAC8 using fluorogenic HDAC substrate after 15 mins by fluorimetrc method.

In another data set the target is T2, Histone deacetylase 11 (Homo sapiens, UniProt Q96DB2).
T2 sequence (Q96DB2 whole entry): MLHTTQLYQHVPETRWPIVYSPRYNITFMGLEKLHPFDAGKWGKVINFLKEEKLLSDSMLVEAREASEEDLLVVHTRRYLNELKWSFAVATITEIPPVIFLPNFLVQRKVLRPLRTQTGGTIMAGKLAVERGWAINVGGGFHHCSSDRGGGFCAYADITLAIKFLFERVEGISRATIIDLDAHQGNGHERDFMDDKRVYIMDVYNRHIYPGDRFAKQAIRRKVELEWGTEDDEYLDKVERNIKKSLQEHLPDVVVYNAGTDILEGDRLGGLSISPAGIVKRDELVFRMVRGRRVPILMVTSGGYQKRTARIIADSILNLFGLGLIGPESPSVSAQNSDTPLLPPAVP
Put plainly: Inhibition of human recombinant HDAC11 using fluorogenic HDAC substrate class 2a after 30 mins by fluorimetrc method.

A word on the solubility: it is how much of the substance goes into solution per volume. Read a high solubility as a readily soluble substance. The Ki is the dissociation constant of the complex between target and ligand, obtained from inhibition or displacement. With `COc1ccc(Nc2c(NCCCCCC(=O)NO)c(=O)c2=O)cc1`, the solubility at 24 h in data set [1] came to 0.3 mM (≈ 0.104 mg/mL). Besides, the inhibition constant Ki was determined as 0.1 µM on Histone deacetylase 8 and 0.14 µM at Histone deacetylase 11.
In data set [1], `CC(C)(CCCCC(=O)NO)Nc1c(Nc2ccc(C(F)(F)F)cc2)c(=O)c1=O` returned a solubility at 24 h of 30 mM (≈ 12.4 mg/mL). Besides, the values for the Ki on Histone deacetylase 8 and at Histone deacetylase 11 were 0.11 µM and 0.021 µM, respectively.
`CC(Nc1c(NCCCCCC(=O)NO)c(=O)c1=O)C12CC3CC(CC(C3)C1)C2` (centres undefined): the concentration in solution in data set [1] (solubility at 24 h) was 39 mM (≈ 15.7 mg/mL). For the same molecule, the results for the Ki at Histone deacetylase 8 and at Histone deacetylase 11 were 0.32 µM and 0.038 µM, respectively.
